Test results from article PMC12186844 (ACS Chemical Neuroscience, 2025).
Where a chain is given by its changes, count along the chain named.

How the values were obtained:
D2LR = D2LR (Homo sapiens, UniProt P14416); assay: ERK1/2 phosphorylation assay; assay type: cell-based; conditions: pERK1/2
Description: Flp-In-CHO cells stably expressing the D2LR were seeded into 96-well plates at a density of 50,000 cells/well. After 5 h, cells were washed with phosphate-buffered saline (PBS) and incubated in serum-free DMEM overnight before assaying. […] Stimulation of the cells was terminated by removing the medium followed by the addition of 100 μL of SureFire lysis buffer (PerkinElmer) to each well. The plate was shaken for 5 min at RT before 5 μL of the lysates was transferred to a white 384-well ProxiPlate (PerkinElmer). Then, 8 μL of a 240:1440:7:7 mixture of Surefire activation buffer:Surefire reaction buffer:AlphaScreen acceptor beads:AlphaScreen donor beads was added to the samples and incubated in the dark at 37 °C for 1.5 h. Plates were read using a Fusion plate reader.

SNAP-D2SR N52^1.50A = SNAP-D2SR N52^1.50A (Homo sapiens, UniProt P14416, N52A); assay: functional cAMP assay, BRET biosensor; assay type: cell-based
Description: (§1) Flp-In-CHO cells stably coexpressing the CAMYEL biosensor and DRs were plated into white 96-well CulturPlates (Revvity) and grown overnight. The cells were equilibrated in Hank’s balanced salt solution (HBSS) at 37 °C (or 25 °C when indicated) before starting the experiment. The cells were costimulated with the agonists and 10 μM forskolin for the indicated time frames when the BRET readings were captured. Coelenterazine (Nanolight Technology, AZ) was added at a final concentration of 5 μM at least 3 min prior to measurement. […] Net BRET was determined by subtraction of the vehicle control coadded with 10 μM forskolin.
(§2) Dose–response curves were fitted using the following three-parameter equation: response=bottom+top−bottom/1+10^(logEC50−log[A]) 5 where top and bottom represent the maximal and minimal asymptote of the dose response curve, [A] is the molar concentration of the agonist, and EC50 is the molar concentration of the agonist required to give a response half-way between bottom and top.

SNAP-D2SR D80^2.50A [1] = molecular target: T1, SNAP-D2SR D80^2.50A (Homo sapiens, UniProt P14416, D80A); assay: functional cAMP assay, BRET biosensor; assay type: cell-based
Description: as §1, §2

SNAP-D2SR V91^2.61A = SNAP-D2SR V91^2.61A (Homo sapiens, UniProt P14416, V91A); assay: functional cAMP assay, BRET biosensor; assay type: cell-based
Description: (§3) Flp-In-CHO cells stably coexpressing the CAMYEL biosensor and DRs were plated into white 96-well CulturPlates (Revvity) and grown overnight. The cells were equilibrated in Hank’s balanced salt solution (HBSS) at 37 °C (or 25 °C when indicated) before starting the experiment. The cells were costimulated with the agonists and 10 μM forskolin for the indicated time frames when the BRET readings were captured. Coelenterazine (Nanolight Technology, AZ) was added at a final concentration of 5 μM at least 3 min prior to measurement. […] Net BRET was determined by subtraction of the vehicle control coadded with 10 μM forskolin. For phenoxybenzamine alkylation experiments, the cells were treated with 0.1, 0.3, or 1 μM phenoxybenzamine (Sigma-Aldrich) diluted in HBSS and equilibrated at 37 °C for 30 min prior to the commencement of the assay.
as §2

SNAP-D2SR L94^2.64A = SNAP-D2SR L94^2.64A (Homo sapiens, UniProt P14416, L94A); assay: functional cAMP assay, BRET biosensor; assay type: cell-based
Description: as §3, §2

SNAP-D2SR W100^ECL1A = SNAP-D2SR W100^ECL1A (Homo sapiens, UniProt P14416, W100A); assay: functional cAMP assay, BRET biosensor; assay type: cell-based
Description: as §3, §2

SNAP-D2SR I73^2.43A = SNAP-D2SR I73^2.43A (Homo sapiens, UniProt P14416, I73A); assay: cell membrane [3H]spiperone assay
Description: (§4) Flp-In-CHO cells stably expressing the wild-type or mutant DRs were grown to 90% confluence in 175 cm^2 cell culture flasks. The cells were harvested in PBS containing 2 mM EDTA and centrifuged at 300g for 3 min. The resulting pellet was resuspended in ice-cold assay buffer (20 mM HEPES, 100 mM NaCl, 6 mM MgCl2, 1 mM EGTA, and 1 mM EDTA, pH 7.4), and the centrifugation step was repeated. The intact cell pellet was then resuspended in assay buffer and homogenized using a Polytron homogenizer. After centrifugation (1000g, 10 min), the pellet was discarded, and the supernatant was recentrifuged at 30,000g for 1 h at 4 °C using a Sorvall Evolution RC ultracentrifuge (Thermo Scientific). The resulting pellet was resuspended in assay buffer and stored in 250 μL aliquots at −80 °C. Membrane protein concentration was determined using a Pierce’s BCA protein assay kit (Thermo Fisher, Melbourne).
(§5) [^3H]­Spiperone binding experiments using cell membranes were conducted in a 200 μL reaction volume in assay buffer (20 mM HEPES, 100 mM NaCl, 6 mM MgCl2, 1 mM EGTA, and 1 mM EDTA, pH 7.4) containing 100 μM GppNHp and 0.1% ascorbic acid in 96-well plates. […] In all cases, nonspecific binding was determined in the presence of 10 μM haloperidol. […] Filter bound radioactivity was detected as a chemiluminescence after the addition of MicroScint-20 (Revvity) in a MicroBeta plate counter (Revvity). […]

SNAP-D2SR T398^7.54A = SNAP-D2SR T398^7.54A (Homo sapiens, UniProt P14416, T427A); assay: cell membrane [3H]spiperone assay
Description: as §4, §5

SNAP-D2SR F408^8.54A = SNAP-D2SR F408^8.54A (Homo sapiens, UniProt P14416, F437A); assay: cell membrane [3H]spiperone assay
Description: as §4, §5

SNAP-D2SR D80^2.50A [2] = molecular target: T1, SNAP-D2SR D80^2.50A; assay: cell membrane [3H]spiperone assay
Description: as §4, §5

SNAP-D2SR S121^3.39A = molecular target: T2, SNAP-D2SR S121^3.39A (Homo sapiens, UniProt P14416, S121A); assay: cell membrane [3H]spiperone assay
T2 sequence (P14416 1-414 isoform P14416-2 S121A): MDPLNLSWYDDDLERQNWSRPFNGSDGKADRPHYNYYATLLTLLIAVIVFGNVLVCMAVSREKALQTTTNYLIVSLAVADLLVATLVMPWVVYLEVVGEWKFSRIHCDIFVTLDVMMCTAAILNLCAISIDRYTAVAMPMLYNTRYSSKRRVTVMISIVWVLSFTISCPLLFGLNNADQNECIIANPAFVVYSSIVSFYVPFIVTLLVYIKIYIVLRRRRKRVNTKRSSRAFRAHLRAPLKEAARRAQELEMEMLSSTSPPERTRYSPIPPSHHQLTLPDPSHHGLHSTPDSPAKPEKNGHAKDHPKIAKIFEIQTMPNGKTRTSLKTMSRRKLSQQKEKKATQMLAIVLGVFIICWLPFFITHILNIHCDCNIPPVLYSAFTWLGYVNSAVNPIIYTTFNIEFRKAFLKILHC
Description: as §4, §5

SNAP-D2SR I128^3.46A = molecular target: T3, SNAP-D2SR I128^3.46A (Homo sapiens, UniProt P14416, I128A); assay: cell membrane [3H]spiperone assay
T3 sequence (P14416 1-414 isoform P14416-2 I128A): T2 sequence (P14416 1-414 isoform P14416-2 S121A) with A121S, I128A
Description: as §4, §5

Sequence of SNAP-D2SR V91^2.61A (P14416 1-414 isoform P14416-2 V91A): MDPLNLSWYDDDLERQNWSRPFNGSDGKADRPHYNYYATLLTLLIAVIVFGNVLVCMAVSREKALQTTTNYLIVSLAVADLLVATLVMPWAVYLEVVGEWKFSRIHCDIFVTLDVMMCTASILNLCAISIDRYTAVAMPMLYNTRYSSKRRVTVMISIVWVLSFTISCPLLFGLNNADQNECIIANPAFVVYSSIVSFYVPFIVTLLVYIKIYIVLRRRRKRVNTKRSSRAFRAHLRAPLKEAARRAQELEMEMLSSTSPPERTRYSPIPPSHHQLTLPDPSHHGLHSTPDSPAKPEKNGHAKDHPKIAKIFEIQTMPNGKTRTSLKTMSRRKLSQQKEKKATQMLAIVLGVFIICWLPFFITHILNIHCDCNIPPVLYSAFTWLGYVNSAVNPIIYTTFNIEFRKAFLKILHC
T1 sequence (P14416 1-414 isoform P14416-2 D80A): as the sequence (P14416 1-414 isoform P14416-2 V91A) above, with D80A, A91V counted along it
Sequence of SNAP-D2SR N52^1.50A (P14416 1-414 isoform P14416-2 N52A): as the sequence (P14416 1-414 isoform P14416-2 V91A) above, with N52A, A91V counted along it
Sequence of D2LR (P14416 whole entry, the tested form may be a part): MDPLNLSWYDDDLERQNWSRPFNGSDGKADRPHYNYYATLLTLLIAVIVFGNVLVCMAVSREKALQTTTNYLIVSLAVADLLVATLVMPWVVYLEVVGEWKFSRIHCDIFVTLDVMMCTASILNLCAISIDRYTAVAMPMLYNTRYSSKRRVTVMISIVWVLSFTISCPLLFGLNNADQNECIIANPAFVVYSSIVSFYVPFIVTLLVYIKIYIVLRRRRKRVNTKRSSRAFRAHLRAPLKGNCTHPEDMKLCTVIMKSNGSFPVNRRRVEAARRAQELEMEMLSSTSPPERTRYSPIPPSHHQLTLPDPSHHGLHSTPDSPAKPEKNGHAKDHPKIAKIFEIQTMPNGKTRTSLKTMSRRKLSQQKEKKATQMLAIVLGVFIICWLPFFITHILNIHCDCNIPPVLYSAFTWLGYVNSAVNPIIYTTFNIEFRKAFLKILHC
Sequence of SNAP-D2SR L94^2.64A (P14416 1-414 isoform P14416-2 L94A): as the sequence (P14416 1-414 isoform P14416-2 V91A) above, with A91V, L94A counted along it
Sequence of SNAP-D2SR W100^ECL1A (P14416 1-414 isoform P14416-2 W100A): as the sequence (P14416 1-414 isoform P14416-2 V91A) above, with A91V, W100A counted along it
Sequence of SNAP-D2SR F408^8.54A (P14416 1-414 isoform P14416-2 F408A): as the sequence (P14416 1-414 isoform P14416-2 V91A) above, with A91V, F408A counted along it
Sequence of SNAP-D2SR T398^7.54A (P14416 1-414 isoform P14416-2 T398A): as the sequence (P14416 1-414 isoform P14416-2 V91A) above, with A91V, T398A counted along it
Sequence of SNAP-D2SR I73^2.43A (P14416 1-414 isoform P14416-2 I73A): as the sequence (P14416 1-414 isoform P14416-2 V91A) above, with I73A, A91V counted along it

COc1cc(CO)c(F)cc1C(=O)n1ccc2c(F)cccc21 [D2 PAM2, [5-fluoro-4-(hydroxymethyl)-2-methoxyphenyl]-(4-fluoro-1H-indol-1-yl)methanone]
pKB (D2LR): 5.36 ± 0.13
LogτB (D2LR; intrinsic efficacy): 0.18 ± 0.03
Logαβ (D2LR; with dopamine): 1.37 ± 0.12
D2 PAM2 log τ (SNAP-D2SR N52^1.50A): 0.23 ± 0.07
D2 PAM2 pKB (SNAP-D2SR N52^1.50A): 4.89 ± 0.21
D2 PAM2 τ (SNAP-D2SR N52^1.50A): 1.69
Kb (SNAP-D2SR N52^1.50A; read-out: D2 PAM2 KB (converted)): 12.8 µM
D2 PAM2 log αβ (SNAP-D2SR N52^1.50A; with DA): 1.18 ± 0.28
D2 PAM2 αβ (SNAP-D2SR N52^1.50A; with DA): 15
D2 PAM2 log τ (SNAP-D2SR D80^2.50A [1]): –0.78 ± 0.25
D2 PAM2 pKB (SNAP-D2SR D80^2.50A [1]): 4.82 ± 0.18
D2 PAM2 τ (SNAP-D2SR D80^2.50A [1]): 0.17
D2 PAM2 log αβ (SNAP-D2SR D80^2.50A [1]; with DA): 0.96 ± 0.25
D2 PAM2 αβ (SNAP-D2SR D80^2.50A [1]; with DA): 9.0
Kb (SNAP-D2SR V91^2.61A): 2.6 µM
Logτ (SNAP-D2SR V91^2.61A): -0.23 ± 0.08
pKB (SNAP-D2SR V91^2.61A): 5.59 ± 0.21
τ (SNAP-D2SR V91^2.61A): 0.59
Logαβ (SNAP-D2SR V91^2.61A; with DA): 0.93 ± 0.18
αβ (SNAP-D2SR V91^2.61A; with DA): 8.5
Kb (SNAP-D2SR L94^2.64A): 12.6 µM
Logτ (SNAP-D2SR L94^2.64A): -0.43 ± 0.07
pKB (SNAP-D2SR L94^2.64A): 4.90 ± 0.12
τ (SNAP-D2SR L94^2.64A): 0.37
Logαβ (SNAP-D2SR L94^2.64A; with DA): 1.54 ± 0.10
αβ (SNAP-D2SR L94^2.64A; with DA): 34.7
Kb (SNAP-D2SR W100^ECL1A): 11.7 µM
Logτ (SNAP-D2SR W100^ECL1A): -0.43 ± 0.06
pKB (SNAP-D2SR W100^ECL1A): 4.93 ± 0.28
τ (SNAP-D2SR W100^ECL1A): 0.37
Logαβ (SNAP-D2SR W100^ECL1A; with DA): 1.54 ± 0.10
αβ (SNAP-D2SR W100^ECL1A; with DA): 34.7
fold shift + 10 μM PAM (SNAP-D2SR I73^2.43A; shift of DA IC50): 1.5 fold
ΔpIC50 + 10 μM PAM (SNAP-D2SR I73^2.43A; shift of DA pIC50): 0.17 ± 0.09
fold shift + 10 μM PAM (SNAP-D2SR T398^7.54A; shift of DA IC50): 1 fold
ΔpIC50 + 10 μM PAM (SNAP-D2SR T398^7.54A; shift of DA pIC50): –0.01 ± 0.05
fold shift + 10 μM PAM (SNAP-D2SR F408^8.54A; shift of DA IC50): 0.85 fold
ΔpIC50 + 10 μM PAM (SNAP-D2SR F408^8.54A; shift of DA pIC50): –0.07 ± 0.14
fold shift + 10 μM PAM (SNAP-D2SR D80^2.50A [2]; shift of DA IC50): 0.9 fold
ΔpIC50 + 10 μM PAM (SNAP-D2SR D80^2.50A [2]; shift of DA pIC50): –0.04 ± 0.27
fold shift + 10 μM PAM (SNAP-D2SR S121^3.39A; shift of DA IC50): 2.6 fold
ΔpIC50 + 10 μM PAM (SNAP-D2SR S121^3.39A; shift of DA pIC50): 0.41 ± 0.18
fold shift + 10 μM PAM (SNAP-D2SR I128^3.46A; shift of DA IC50): 1.1 fold
ΔpIC50 + 10 μM PAM (SNAP-D2SR I128^3.46A; shift of DA pIC50): 0.06 ± 0.13
